Consider ten molecules from ChEMBL document CHEMBL4043258, “Polycyclic polyprenylated acylphloroglucinol derivatives from Hypericum scabrum” (2017).

In general, inhibition refers to the change of the read-out against control, counted positive when it falls.

Each structure is given as a SMILES string.

The subject of this assay is HepG2. The experiment in a line: Hepatoprotective activity in human HepG2 cells assessed as inhibition of paracetamol-induced reduction in cell viability at 10 uM pretreated for 1 hr followed by paracetamol addition after 24 hrs by MTT assay relative to control. It counts as functional. (In general: Formazan colour is commonly taken as a measure of viable cells.)
With `CC[C@H](C)C(=O)[C@]12C(=O)[C@](C)(C[C@H](CC=C(C)C)[C@@]1(C)CCC=C(C)C)C(=O)C1=C2O[C@H](C(C)(C)O)C1`, the inhibition at 10 µM came to 15%.
The result for `CC(=O)CC1C2CC3(CC=C(C)C)C(=O)C1(C(=O)c1ccccc1)C(=O)C(CC=C(C)C)(C3=O)C2(C)C` (stereo not given) reads 13.9%; that for `CC(C)=CC[C@H]1C[C@]2(CC=C(C)C)C(=O)C3=C(O[C@H](C(C)(C)O)C3)[C@@](C(=O)c3ccccc3)(C2=O)C1(C)C`, 19.5%; that for `CC(C)=CC[C@H]1C[C@@]23C[C@H](C(C)(C)O)OC2=C(C(=O)c2ccccc2)C(=O)[C@](C(=O)c2ccccc2)(C3=O)C1(C)C`, 13.4%.
The figure for `COC(=O)[C@]1(CC=C(C)C)C[C@@H](CC=C(C)C)C(C)(C)[C@@H](C(=O)c2ccccc2)C1=O` is 32.3%; for `CC(C)=CC[C@@H]1C[C@@]2(CC=C(C)C)C(=O)[C@](C(=O)c3ccccc3)(C(=O)C3=C2O[C@H](C(C)(C)O)C3)C1(C)C` it is 24.5%; for `CC(C)=CCC1=C2O[C@@H](C(C)(C)O)C[C@@]23C[C@@H](CC=C(C)C)C(C)(C)[C@@](C(=O)c2ccccc2)(C1=O)C3=O` it is -9.68%.
Consider `CC(C)=CC[C@H]1C[C@@]2(CC=C(C)C)C(=O)C3=C(O[C@H](C(C)(C)O)C3)[C@](C(=O)c3ccccc3)(C2=O)C1(C)C`, for which the inhibition at 10 µM was 40.4%.
The figure for `CC(C)=CC[C@H]1C[C@@H](CC=C(C)C)C(C)(C)C(C(=O)c2ccccc2)C1=O` (single isomer, unassigned) is 45%.
The figure for `COC(=O)c1cc(OC)c2c(c1-c1c(CO)cc(OC)c3c1OCO3)OCO2` [BICYCLOL] is 28.3%.
